Reference: patent publication US20140030289A1, “COMPOSITIONS COMPRISING BETA-CARYOPHYLLENE AND METHODS OF UTILIZING THE SAME” (priority 2011, published 2014)

Legend:
caspase-3 [1] = experiment: Caspase-3 cellular activity assay, BS-24-1 cells; type: cell-based, mouse
[2] = tested on: EBV-producing B95-8 cells; experiment: Survival of EBV-producing B95-8 cells; type: cell-based; conditions: increasing concentration
Excerpt: Epstein-Barr virus strain B95-8 can immortalize human B lymphocytes. B95-8 is a cell line that produces Epstein-Barr virus (EBV).

[3] = biological target: cannabinoid receptor type-1 (CB 1) (Homo sapiens, UniProt P21554); conditions: background statement; cited from earlier work
[4] = biological target: cannabinoid receptor type-2 (Homo sapiens, UniProt P34972); conditions: background statement; cited from earlier work
Topoisomerase I = biological target: T1, Topoisomerase I (Homo sapiens, UniProt P11387); experiment: Topoisomerase I activity; type: biochemical
T1 sequence (P11387 1-765): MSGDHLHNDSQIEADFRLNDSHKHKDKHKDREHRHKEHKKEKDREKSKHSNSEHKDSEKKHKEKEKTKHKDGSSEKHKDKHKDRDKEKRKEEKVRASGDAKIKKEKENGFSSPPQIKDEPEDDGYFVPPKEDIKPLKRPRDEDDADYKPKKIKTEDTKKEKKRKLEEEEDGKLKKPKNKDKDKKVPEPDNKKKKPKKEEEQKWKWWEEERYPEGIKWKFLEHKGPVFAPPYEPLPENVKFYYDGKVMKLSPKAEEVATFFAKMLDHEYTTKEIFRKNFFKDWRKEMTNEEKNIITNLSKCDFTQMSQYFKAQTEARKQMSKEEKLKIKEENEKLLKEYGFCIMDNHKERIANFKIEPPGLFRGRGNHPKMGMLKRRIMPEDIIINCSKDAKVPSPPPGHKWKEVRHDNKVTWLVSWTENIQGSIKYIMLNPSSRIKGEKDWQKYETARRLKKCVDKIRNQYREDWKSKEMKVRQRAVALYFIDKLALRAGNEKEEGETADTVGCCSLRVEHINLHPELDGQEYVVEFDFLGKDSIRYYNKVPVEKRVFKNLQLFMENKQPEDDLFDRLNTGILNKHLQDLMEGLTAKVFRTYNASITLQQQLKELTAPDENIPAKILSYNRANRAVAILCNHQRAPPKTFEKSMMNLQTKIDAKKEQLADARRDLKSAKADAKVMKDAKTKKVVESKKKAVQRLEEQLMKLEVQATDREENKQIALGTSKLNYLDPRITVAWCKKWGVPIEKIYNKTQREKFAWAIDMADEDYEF
Excerpt: Topoisomerase I introduces a nick in the DNA backbone allowing the rotation of one DNA strand around the second DNA strand. The DNA break is extremely transient and is re-ligated almost immediately. When an inhibitor of Topoisomerase I is present, it binds to the Topoisomerase I-nicked DNA complex or to the Topoisomerase I itself and this prevents the re-ligation of the nicked strand or the initial nick and rotation, respectively. Topoisomerase I and II activities are required for Epstein-Barr Virus replication.

BS-24-1 cells = experiment: DNA ladder analysis (apoptosis), BS-24-1 cells; type: cell-based, mouse; conditions: BS-24-1, 2-h treatment
Protocol: FIG. 6. is a gel micrograph showing the DNA ladder effect (induction of apoptosis) of different compositions. BS-24-1 cells (1,000,000/mL) were incubated with C. gileadensis stem and leaf extracts (6 μl/mL) for 17 h. DNA was separated and analyzed on agarose gel. Lanes 1-7 and 11, H2O based stem extract. Lanes 8-10, H2O based leaf extract. Lanes 12-18 and 22, ethanol based stem extract. Lanes 19-21, ethanol based leaf extract. Lanes 23 and 24 Control cells treated with ethanol (0.05%) and water.
FIG. 8. is a gel micrograph showing the DNA ladder effect (induction of apoptosis) of different compositions. BS-24-1 cells were incubated with C. gileadensis essential oil for 24 h. DNA was separated and analyzed on agarose gel. Lane 1, untreated cells with ethanol (0.05%) alone. Lane 2, cells incubation with 0.625 μl/mL essential oil. Lane 3, cells incubation with 1.25 μl/mL essential oil.
FIG. 9. is a gel micrograph showing the DNA ladder effect (induction of apoptosis) of β-Caryophyllene. Fragmentation of DNA in the presence of β-Caryophyllene. BS-24-1 cells were incubated in the presence of β-Caryophyllene in three different concentrations and two incubation time Lane 1, untreated cells with ethanol (0.05%) alone. Lane 2, cells incubated for 24 h with […] Lane 3, cells incubated for 2 h with 9.6 μM β-caryophyllene. […]

caspase-3 [5] = experiment: Caspase-3 cellular activity assay, MoFir cells; type: cell-based, human
Protocol: FIG. 4. is a bar graph showing the apoptogenic effects of β-Caryophyllene on two tumor cell lines. Enzymatic activity of different cell lines incubated with β-Caryophyllene (2.4e^−4 μM) for 2 h. X axis represents the time of the enzymatic reaction in vitro in minutes.
FIG. 5. is a bar graph showing the apoptogenic effects of β-Caryophyllene on two tumor cell lines. […] Measurements were taken following 1020 min of enzymatic reaction in vitro. Pre-incubation with caspase-3 inhibitor (DEVD-CHO) eliminated any development of caspase-3 activity.
Caspase-3 cellular activity assay was carried out according to the manufacturer's instructions. For measuring specific inhibition by Ac-DEVD-CHO, cell extracts were pre-incubated with the inhibitor (0.05 μM) for 10 minutes before the addition of the substrate. […] Cellular extracts were prepared and then caspase-3 activity was measured.

[6] = tested on: BS-24-1: mouse lymphoma cell; experiment: Cell death / anti-proliferative assay (MTT/XTT) in BS-24-1 cells; type: cell-based; conditions: BS-24-1, 4.8e^−4 μM, 2 h
Protocol: (§1) The following cell lines were used in this study: (1) BS-24-1: mouse lymphoma cell; (2) MoFir: Epstein-Barr virus transformed human B lymphocytes generated in the laboratory by transformation of human B cell from an anonymous donor (see below); (3) FB: normal human skin fibroblasts.
(§2) Cell death was assessed by incubation of cells with tetrazolium salt XTT. The production of formazan can be monitored using an ELISA reader at a wavelength of 450 nm. Cytotoxicity in compound-treated culture was expressed as follows: % survival=100×(absorbance of compound-treated cell/absorbance of ethanol-treated cells).
(§3) In order to investigate whether C. gikadensis extracts had anti-proliferative effects against tumor cell lines, an MTT (3-(4,5-Dimethylthiazol-2-yl)-2,5-diphenyltetrazolium bromide) assay was used. The effect of this extract was assessed in mouse (BS-24-1) and human (MoFir) cell lines using ethanol (EtOH)-based stem extracts. The concentration of cells was 1.0×10^6/mL.

[7] = tested on: MoFir: Epstein-Barr virus transformed human B lymphocytes; experiment: Cell death / anti-proliferative assay (MTT/XTT) in MoFir cells; type: cell-based; conditions: 4.8e^−4 μM, 2 h
Protocol: as §1
To establish the MoFir cells, B cells from whole blood were prepared by Ficoll -Hypaque density gradient centrifugation. The cells were infected with the B95-8 strain of Epstein-Barr virus. RPMI medium (Biological Industries Beit Haemek) was used for cell culture. The EBV B lymphocyte cell line was maintained in RPMI supplemented with 10% FBS, 100 U/mL penicillin and […] streptomycin. The culture was maintained at 37° C. in 5% CO2 atmosphere. […]
as §2
as §3, with “The concentration of cells was 1.0×10^6/mL.” left out

[8] = tested on: FB: normal human skin fibroblasts; experiment: DNA ladder analysis (apoptosis), normal FB cells; type: cell-based; conditions: summary statements
Protocol: FIG. 7. is a gel micrograph showing the DNA ladder effect (induction of apoptosis) of different compositions. MoFir and normal FB cells were incubated with C. gileadensis extract (2.5 μl/mL) for 24 h. DNA was separated and analyzed on agarose gel. Lane 1 and 2, ethanol based stem extract Lane 3-5, ethanol based leaf extract. Lane 6 control cells treated with ethanol (0.05%).
DNA ladder analysis was performed as previously described Ofir R. et al., (1999) (Ofir R, Zhang L-, Adams J M. Interference with gene expression induces rapid apoptosisin p53-null T lymphoma cells. Cell Death and Differentiation 1999; 6: 1216-1221).

Epstein-Barr virus = experiment: In vivo EBV animal model (humanized mouse or rabbit); conditions: 5.0, 10 or 20 mg/kg, 4 consecutive days, i.p. or within food or drinking water
Protocol: Studies evaluating the effect of C. gileadensis extract and β-caryophyllene in an in vivo animal model are performed using the humanized mouse animal model described in Sato et al., 2011 (“A novel animal model of Epstein-Barr virus-associated hemophagocytic lymphohistiocytosis in humanized mice” Blood, 2011 May 26; 117(21):5663-73, incorporated herein by reference in its entirety) or using the rabbit model described in Takashima, 2008 (“A new animal model for primary and persistent Epstein-Barr virus infection: human EBV-infected rabbit characteristics determined using sequential imaging and pathological analysis” J Med. Virol. 2008 March; 80(3):455-66, incorporated herein by reference in its entirety). C. gileadensis extract and β-caryophyllene are supplied in balanced salt solution containing 12% Tween 80 (pH 7.4) and diluted immediately before use in appropriate concentrations. Doses of 5.0, 10 or 20 mg/kg are administered for 4 consecutive days to control and EBV groups (eight animals/group) by i.p. injection of 0.1 ml per mouse or within the food or drinking water. Both C. gileadensis extract and β-caryophyllene are found to prevent EBV-induced death, viremia, leukocytosis, IFN-γ cytokinenemia, normocytic anemia, and thrombocytopenia, and increase survival time

cannabinoid receptor type-2, sequence (P34972 whole entry): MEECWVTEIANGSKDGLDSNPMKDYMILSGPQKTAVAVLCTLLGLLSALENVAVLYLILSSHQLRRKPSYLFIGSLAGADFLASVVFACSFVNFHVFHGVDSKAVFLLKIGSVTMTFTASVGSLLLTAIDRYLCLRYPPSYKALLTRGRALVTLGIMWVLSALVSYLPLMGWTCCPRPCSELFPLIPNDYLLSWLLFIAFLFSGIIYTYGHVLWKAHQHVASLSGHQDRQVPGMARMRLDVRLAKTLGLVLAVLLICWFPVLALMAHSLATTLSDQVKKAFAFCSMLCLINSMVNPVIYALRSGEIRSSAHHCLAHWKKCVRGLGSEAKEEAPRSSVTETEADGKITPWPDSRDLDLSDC
cannabinoid receptor type-1 (CB 1), sequence (P21554 whole entry, species assumed): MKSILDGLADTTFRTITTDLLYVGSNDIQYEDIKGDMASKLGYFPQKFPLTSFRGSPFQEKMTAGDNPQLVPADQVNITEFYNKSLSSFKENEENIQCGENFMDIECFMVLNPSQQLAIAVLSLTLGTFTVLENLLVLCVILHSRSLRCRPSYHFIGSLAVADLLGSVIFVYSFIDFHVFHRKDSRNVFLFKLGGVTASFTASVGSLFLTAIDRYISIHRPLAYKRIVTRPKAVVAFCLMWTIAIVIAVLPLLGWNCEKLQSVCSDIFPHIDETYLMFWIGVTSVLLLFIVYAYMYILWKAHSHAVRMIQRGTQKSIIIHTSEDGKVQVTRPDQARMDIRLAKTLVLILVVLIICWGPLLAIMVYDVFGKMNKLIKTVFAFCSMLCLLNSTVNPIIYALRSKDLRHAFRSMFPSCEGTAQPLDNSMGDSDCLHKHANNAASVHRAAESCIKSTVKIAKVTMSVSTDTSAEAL

Compound | enzymatic activity of caspase-3 (caspase-3 [1]; BS-24-1, 2.4e^−4 μM, 4 h incubation) | induction of caspase-3 enzymatic activity compared to reference compounds STS and citral (caspase-3 [1]; data not shown, cell line not stated) | survival of EBV-producing B95-8 cells [2] | binding to cannabinoid receptor type-1 (CB 1) [3] | binding to cannabinoid receptor type-2 [4] | activity of Topoisomerase I (Topoisomerase I) | DNA ladder (DNA fragmentation) (BS-24-1 cells) | enzymatic activity of caspase-3 (caspase-3 [5]; 2.4e^−4 μM) | cell killing [6] | cell killing [7] | apoptosis induction in normal cells (FB) [8] | EBV-induced death, viremia, leukocytosis, IFN-γ cytokinenemia, normocytic anemia, and thrombocytopenia (Epstein-Barr virus) | survival time (Epstein-Barr virus) | beta-caryophyllene induced increase of caspase-3 activity after inhibitor pretreatment (caspase-3 [1]; BS-24-1, pretreatment with inhibitor (0.05 μM, 10 minutes)) | beta-caryophyllene induced increase of caspase-3 activity after inhibitor pretreatment (caspase-3 [5]; pretreatment with inhibitor (0.05 μM, 10 minutes))
C=C1CC/C=C(\C)CC[C@@H]2[C@@H]1CC2(C)C [Beta-caryophyllene, trans-(1R,9S)-8-Methylene-4,11,11-trimethylbicyclo[7.2.0]undec-4-ene] | activation of the enzymatic activity of caspase-3 | stronger than both | decreases the survival | does not bind | selectively bind | inhibits | repeated | activation of the enzymatic activity of caspase-3 | 85-90% | 85-90% | not in normal cells | prevent | increase |  | 
Ac-DEVD-CHO [reference compound] |  |  |  |  |  |  |  |  |  |  |  |  |  | blocked | blocked
